Reference: US10125098B2, “Therapeutic compounds and methods of use thereof” (GENENTECH, INC., priority 2014, dated 2018)
Structures can show the parent of a compound that is named as a salt. Where two headings read alike, the source gives them in different places.

Experiments:
NaV1.5 = target: T1, NaV1.5 (Homo sapiens, UniProt Q14524); test: Patch voltage clamp electrophysiology assay (EP), NaV1.5; type: cell-based; conditions: HEK-293 cells stably expressing NaV1.5 with β1 subunit, whole-cell patch clamp, membrane potential −60 mV (inactivated state)
T1 construct: permanently transfected with an expression vector containing the full-length cDNA coding for the desired human sodium channel α-subunit; expressed in transfected cells; host or cells: HEK-293
Outline: (§1)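 HEK-293 cells stably expressing human α-subunit with β1; whole-cell patch clamp (PatchXpress or manual), ambient temperature, pH 7.4 external NaCl, CsF internal. Held at −60 mV (full inactivation), stepped to −150 mV for 20 ms, then test pulse; percent current decrease after compound wash-on taken as block.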

hNav1.7 = target: T2, hNav1.7 (Homo sapiens, UniProt Q15858); test: Tritiated compound binding (LBA) to membranes from cells expressing hNav1.7 and the β1 subunit, competitive binding; conditions: competitive binding vs 100 pM [3H]compound, 18 h, room temperature, membranes with hNav1.7 and β1 subunit
T2 construct: expressed in transfected cells
Outline: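 Membranes from cells expressing hNav1.7 with β1 were incubated 18 h at room temperature with 100 pM tritiated formula (I) compound and increasing test compound, in 100 mM NaCl, 20 mM Tris HCl pH 7.4, 0.01% BSA.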

human NaV1.7 = target: T3, human NaV1.7 (Homo sapiens, UniProt Q15858); test: Patch voltage clamp electrophysiology assay (EP), NaV1.7; type: cell-based; conditions: HEK-293 cells stably expressing NaV1.7 with β1 subunit; whole-cell patch clamp, membrane potential −60 mV (inactivated state)
T3 construct: permanently transfected with an expression vector containing the full-length cDNA coding for the desired human sodium channel α-subunit; expressed in transfected cells; host or cells: HEK-293
Outline: as §1

[1] = human, HEK-293 cells stably expressing human NaV1.5 with β1 subunit, pH 7.4

T1 sequence (Q14524 whole entry): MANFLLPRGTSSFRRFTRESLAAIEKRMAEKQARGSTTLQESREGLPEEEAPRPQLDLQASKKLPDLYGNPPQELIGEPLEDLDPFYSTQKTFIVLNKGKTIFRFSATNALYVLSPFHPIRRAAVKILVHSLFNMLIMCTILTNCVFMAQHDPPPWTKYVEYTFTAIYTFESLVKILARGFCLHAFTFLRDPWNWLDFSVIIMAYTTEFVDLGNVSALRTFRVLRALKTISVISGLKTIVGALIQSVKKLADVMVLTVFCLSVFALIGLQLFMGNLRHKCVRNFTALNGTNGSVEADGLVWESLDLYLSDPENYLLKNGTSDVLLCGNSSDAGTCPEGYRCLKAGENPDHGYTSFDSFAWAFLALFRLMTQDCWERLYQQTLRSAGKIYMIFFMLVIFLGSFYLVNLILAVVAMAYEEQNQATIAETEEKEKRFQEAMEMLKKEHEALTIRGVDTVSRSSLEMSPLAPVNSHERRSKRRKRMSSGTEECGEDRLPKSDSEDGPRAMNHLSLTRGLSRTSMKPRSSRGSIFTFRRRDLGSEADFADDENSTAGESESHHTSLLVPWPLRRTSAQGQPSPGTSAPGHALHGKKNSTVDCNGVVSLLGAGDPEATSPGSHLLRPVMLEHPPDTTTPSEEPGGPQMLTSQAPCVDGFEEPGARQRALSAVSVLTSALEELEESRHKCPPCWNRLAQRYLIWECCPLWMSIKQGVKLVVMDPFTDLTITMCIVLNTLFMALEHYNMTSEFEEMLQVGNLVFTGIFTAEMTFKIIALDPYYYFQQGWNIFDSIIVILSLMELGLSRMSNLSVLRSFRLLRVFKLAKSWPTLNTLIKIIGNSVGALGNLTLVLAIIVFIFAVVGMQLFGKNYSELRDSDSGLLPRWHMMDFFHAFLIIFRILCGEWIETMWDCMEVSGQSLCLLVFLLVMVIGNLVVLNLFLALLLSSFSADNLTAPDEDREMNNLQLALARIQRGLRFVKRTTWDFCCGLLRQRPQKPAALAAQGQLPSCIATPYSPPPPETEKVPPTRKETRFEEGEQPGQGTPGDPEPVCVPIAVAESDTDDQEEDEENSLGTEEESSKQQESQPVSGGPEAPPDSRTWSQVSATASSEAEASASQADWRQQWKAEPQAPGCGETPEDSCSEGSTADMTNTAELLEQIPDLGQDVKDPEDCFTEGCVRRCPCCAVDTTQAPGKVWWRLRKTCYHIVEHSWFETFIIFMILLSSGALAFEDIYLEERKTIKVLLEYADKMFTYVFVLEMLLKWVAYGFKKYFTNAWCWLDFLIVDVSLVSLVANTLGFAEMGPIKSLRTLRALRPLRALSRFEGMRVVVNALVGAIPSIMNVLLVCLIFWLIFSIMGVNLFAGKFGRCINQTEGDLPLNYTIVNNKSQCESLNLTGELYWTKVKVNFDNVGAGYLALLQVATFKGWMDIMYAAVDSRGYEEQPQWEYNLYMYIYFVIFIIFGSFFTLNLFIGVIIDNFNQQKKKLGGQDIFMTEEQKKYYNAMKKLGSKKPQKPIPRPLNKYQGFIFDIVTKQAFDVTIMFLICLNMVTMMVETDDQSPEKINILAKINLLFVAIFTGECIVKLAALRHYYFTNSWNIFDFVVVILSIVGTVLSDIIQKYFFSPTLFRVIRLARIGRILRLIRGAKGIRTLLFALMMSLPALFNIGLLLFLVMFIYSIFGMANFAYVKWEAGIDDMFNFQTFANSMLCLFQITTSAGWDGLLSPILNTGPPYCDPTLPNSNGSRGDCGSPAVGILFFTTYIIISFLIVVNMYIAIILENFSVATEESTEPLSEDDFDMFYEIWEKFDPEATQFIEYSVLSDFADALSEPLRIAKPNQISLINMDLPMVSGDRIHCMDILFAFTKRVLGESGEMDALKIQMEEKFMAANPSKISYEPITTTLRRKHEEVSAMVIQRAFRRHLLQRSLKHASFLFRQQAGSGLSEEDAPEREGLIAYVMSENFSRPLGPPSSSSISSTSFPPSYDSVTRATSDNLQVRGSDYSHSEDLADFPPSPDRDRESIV
T3 sequence (Q15858 1-1977 isoform Q15858-3): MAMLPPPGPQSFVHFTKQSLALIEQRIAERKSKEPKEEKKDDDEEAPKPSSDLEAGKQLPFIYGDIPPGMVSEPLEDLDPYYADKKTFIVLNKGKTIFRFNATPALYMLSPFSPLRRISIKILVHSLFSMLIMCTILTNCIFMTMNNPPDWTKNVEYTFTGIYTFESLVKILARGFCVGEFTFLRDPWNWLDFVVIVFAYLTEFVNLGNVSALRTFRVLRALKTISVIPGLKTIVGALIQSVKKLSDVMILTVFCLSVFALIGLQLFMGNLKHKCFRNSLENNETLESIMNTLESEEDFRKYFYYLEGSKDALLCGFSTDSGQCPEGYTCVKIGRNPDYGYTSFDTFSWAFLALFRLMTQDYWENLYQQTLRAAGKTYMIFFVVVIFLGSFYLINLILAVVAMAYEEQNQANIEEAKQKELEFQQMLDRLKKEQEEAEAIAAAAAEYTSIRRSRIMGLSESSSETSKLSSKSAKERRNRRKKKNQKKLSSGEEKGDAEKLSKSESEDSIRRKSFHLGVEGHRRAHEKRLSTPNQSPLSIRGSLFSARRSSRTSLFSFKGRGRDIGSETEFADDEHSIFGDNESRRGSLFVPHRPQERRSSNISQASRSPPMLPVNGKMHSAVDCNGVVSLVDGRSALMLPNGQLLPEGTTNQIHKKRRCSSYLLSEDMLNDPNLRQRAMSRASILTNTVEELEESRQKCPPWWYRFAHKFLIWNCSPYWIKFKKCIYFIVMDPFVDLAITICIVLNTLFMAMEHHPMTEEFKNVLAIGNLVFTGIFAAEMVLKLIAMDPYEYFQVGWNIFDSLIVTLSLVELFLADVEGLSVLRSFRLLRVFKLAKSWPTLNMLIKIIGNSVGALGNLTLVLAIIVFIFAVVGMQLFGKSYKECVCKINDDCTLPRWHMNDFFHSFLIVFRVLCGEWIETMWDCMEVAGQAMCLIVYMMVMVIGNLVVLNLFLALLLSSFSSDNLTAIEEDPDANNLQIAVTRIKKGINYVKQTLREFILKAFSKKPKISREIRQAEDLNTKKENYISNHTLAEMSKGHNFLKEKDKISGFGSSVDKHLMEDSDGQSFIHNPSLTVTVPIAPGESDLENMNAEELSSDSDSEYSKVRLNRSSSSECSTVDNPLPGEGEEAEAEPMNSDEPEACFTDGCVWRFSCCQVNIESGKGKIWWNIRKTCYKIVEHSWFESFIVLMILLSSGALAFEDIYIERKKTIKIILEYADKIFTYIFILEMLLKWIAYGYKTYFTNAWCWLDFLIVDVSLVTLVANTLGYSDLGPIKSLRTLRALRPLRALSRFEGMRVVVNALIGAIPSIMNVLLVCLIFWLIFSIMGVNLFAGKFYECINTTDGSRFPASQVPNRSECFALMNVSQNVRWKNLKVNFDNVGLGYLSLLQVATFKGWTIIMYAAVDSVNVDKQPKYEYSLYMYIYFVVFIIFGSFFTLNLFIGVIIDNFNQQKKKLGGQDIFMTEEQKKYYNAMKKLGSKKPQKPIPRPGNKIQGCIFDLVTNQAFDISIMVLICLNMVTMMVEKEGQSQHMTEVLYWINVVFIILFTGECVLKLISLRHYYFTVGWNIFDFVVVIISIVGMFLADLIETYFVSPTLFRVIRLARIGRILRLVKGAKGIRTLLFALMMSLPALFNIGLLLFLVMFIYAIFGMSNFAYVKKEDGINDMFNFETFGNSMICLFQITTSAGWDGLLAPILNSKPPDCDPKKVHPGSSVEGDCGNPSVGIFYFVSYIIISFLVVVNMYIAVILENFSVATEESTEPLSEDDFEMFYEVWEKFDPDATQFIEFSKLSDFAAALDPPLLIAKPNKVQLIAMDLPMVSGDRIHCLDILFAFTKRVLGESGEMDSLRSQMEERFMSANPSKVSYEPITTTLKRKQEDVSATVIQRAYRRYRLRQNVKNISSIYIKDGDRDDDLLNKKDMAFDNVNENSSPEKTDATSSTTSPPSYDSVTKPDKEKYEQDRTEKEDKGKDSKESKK
T3 sequence (Q07699 19-218 partner): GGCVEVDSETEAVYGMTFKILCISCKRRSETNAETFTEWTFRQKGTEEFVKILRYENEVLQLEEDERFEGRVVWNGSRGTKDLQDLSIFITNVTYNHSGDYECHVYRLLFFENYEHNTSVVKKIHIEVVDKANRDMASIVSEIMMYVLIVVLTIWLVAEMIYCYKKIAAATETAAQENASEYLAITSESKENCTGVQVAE
T2 sequence (Q15858 1-1977 isoform Q15858-3): as the sequence (Q15858 1-1977 isoform Q15858-3) above
T2 sequence (Q07699 19-218 partner): as the sequence (Q07699 19-218 partner) above

Structure (SMILES)	IC50 (NaV1.5; read-out: Nav1.5) [nM]	IC50 (hNav1.7) [nM]	IC50 (human NaV1.7) [nM]	IC50 (NaV1.5; [1]) [nM]
O=C(O)[C@@H]1[C@@H](O)CCN1C(=O)c1cc(C2CC2)c(OCC23CC4CC(CC(C4)C2)C3)cc1F [Example 75, (2S,3S)-1-(4-(adamantan-1-ylmethoxy)-5-cyclopropyl-2-fluorobenzoyl)-3-hydroxypyrrolidine-2-carboxylic acid]	25000	600	1300	
CO[C@H]1CCN(C(=O)c2cc(C3CC3)c(OCC34CC5CC(CC(C5)C3)C4)cc2F)[C@@H]1C(=O)O [Example 76, (2S,3 S)-1-(4-(adamantan-1-ylmethoxy)-5-cyclopropyl-2-fluorobenzoyl)-3-methoxypyrrolidine-2-carboxylic acid]	17000	87	1000	
O=C(NC1(C(=O)O)COC1)c1cc(C2CC2)c(OCC23CC4CC(CC(C4)C2)C3)cc1F [Example 77, 3-(4-(adamantan-1-ylmethoxy)-5-cyclopropyl-2-fluorobenzamido)oxetane-3-carboxylic acid]	12000	7400	11000	
O=C(O)C1SCCN1C(=O)c1cc(C2CC2)c(OCC23CC4CC(CC(C4)C2)C3)cc1F (stereo not drawn) [Example 78, 3-(4-(adamantan-1-ylmethoxy)-5-cyclopropyl-2-fluorobenzoyl)thiazolidine-2-carboxylic acid]	13000	9.4	87	
O=C(O)[C@@H]1CCCCN1C(=O)c1cc(C2CC2)c(OCC23CC4CC(CC(C4)C2)C3)cc1F [Example 83, (S)-1-(4-(adamantan-1-ylmethoxy)-5-cyclopropyl-2-fluorobenzoyl)piperidine-2-carboxylic acid]	14000	480	2000	
O=C(O)C[C@H](NC(=O)c1cc(C2CC2)c(OCC23CC4CC(CC(C4)C2)C3)cc1F)C(=O)O [Example 84, (S)-2-(4-(adamantan-1-ylmethoxy)-5-cyclopropyl-2-fluorobenzamido)succinic acid]		≥ 10000	17000	≥ 30000
O=C(O)[C@@H]1CCCN1C(=O)c1ccc(OCC23CC4CC(CC(C4)C2)C3)c(C(F)(F)F)c1 [Example 85, (S)-1-(4-(adamantan-1-ylmethoxy)-3-(trifluoromethyl)benzoyl)-pyrrolidine-2-carboxylic acid]	17000	590	1100	
O=C(O)[C@@H]1CCN1C(=O)c1cc(C2CC2)c(OCC23CC4CC(CC(C4)C2)C3)cc1F [Example 86, (S)-1-(4-(adamantan-1-ylmethoxy)-5-cyclopropyl-2-fluorobenzoyl)azetidine-2-carboxylic acid]	26000	1600	1900	
CC[C@H](NC(=O)c1cc(C2CC2)c(OCC23CC4CC(CC(C4)C2)C3)cc1F)C(=O)O [Example 87, (S)-2-(4-(adamantan-1-ylmethoxy)-5-cyclopropyl-2-fluorobenzamido)butanoic acid]	7100	56	1300	
CC(C)C[C@H](NC(=O)c1cc(C2CC2)c(OCC23CC4CC(CC(C4)C2)C3)cc1F)C(=O)O [Example 88, (S)-2-(4-(adamantan-1-ylmethoxy)-5-cyclopropyl-2-fluorobenzamido)-4-methylpentanoic acid]	8200	430	7000	
CCc1cc(C(=O)N2CCC[C@H]2C(=O)O)c(F)cc1OCC12CC3CC(CC(C3)C1)C2 [Example 89, (S)-1-(4-(adamantan-1-ylmethoxy)-5-ethyl-2-fluorobenzoyl)pyrrolidine-2-carboxylic acid]	17000	130	790	
CC1(C)[C@H]2CC[C@H](COc3cc(F)c(C(=O)N4CCC[C@H]4C(=O)O)cc3C3CC3)[C@@H]1C2 [Example 90, (S)-1-(5-cyclopropyl-4-(((1S, 2S, 5S)-6,6-dimethylbicyclo[3.1.1]heptan-2-yl)methoxy)-2-fluorobenzoyl)pyrrolidine-2-carboxylic acid]	13000	21	160	
CC(c1cc(Cl)cc(Cl)c1)N1CCC(COc2cc(F)c(C(=O)N3C[C@H](F)C[C@H]3C(=O)O)cc2C2CC2)CC1 (stereo partly drawn) [Example 91, (2S, 4R)-1-(5-cyclopropyl-4-((1-(1-(3,5-dichlorophenyl)ethyl)piperidin-4-yl)methoxy)-2-fluorobenzoyl)-4-fluoropyrrolidine-2-carboxylic acid]	23000	15	300	
O=C(O)[C@@H]1C[C@@H](F)CN1C(=O)c1cc(C2CC2)c(OCC2CCN(Cc3cc(C(F)(F)F)cc(C4CC4)n3)CC2)cc1F [Example 93, (2S, 4R)-1-(5-cyclopropyl-4-((1-((6-cyclopropyl-4-(trifluoromethyl)-pyridin-2-yl)methyl)piperidin-4-yl)methoxy)-2-fluorobenzoyl)-4-fluoropyrrolidine-2-carboxylic acid]		81	660	≥ 30000
O=C(O)[C@@H]1C[C@@H](F)CN1C(=O)c1cc(C2CC2)c(OCCC2CCN(Cc3cc(Cl)cc(Cl)c3)CC2)cc1F [Example 94, (2S, 4R)-1-(5-cyclopropyl-4-(2-(1-(3,5-dichlorobenzyl)piperidin-4-yl)ethoxy)-2-fluorobenzoyl)-4-fluoropyrrolidine-2-carboxylic acid]		100	600	≥ 30000
O=C(O)C1CC=NN1C(=O)c1cc(C2CC2)c(OCC23CC4CC(CC(C4)C2)C3)cc1F (stereo not drawn) [Example 96, 1-(4-(adamantan-1-ylmethoxy)-5-cyclopropyl-2-fluorobenzoyl)-4,5-dihydro-1H-pyrazole-5-carboxylic acid]		380	1500	≥ 30000
CC(C)COc1ncc(Oc2cc(F)c(C(=O)N3CCC[C@H]3C(=O)O)cc2Cl)cc1Cl [Example 97, 5-chloro-4-((5-chloro-6-isobutoxypyridin-3-yl)oxy)-2-fluorobenzoyl)-L-proline trifluoroacetic acid salt]		440	570	≥ 30000
CC(C)COc1ncc(Oc2cc(F)c(C(=O)N3CCC[C@H]3C(=O)O)cc2C2CC2)cc1C1CC1 [Example 98, (5-cyclopropyl-4-((5-cyclopropyl-6-isobutoxypyridin-3-yl)oxy)-2-fluorobenzoyl)-L-proline trifluoroacetic acid salt and (4-((5-chloro-6-isobutoxypyridin-3-yl)oxy)-5-cyclopropyl-2-fluorobenzoyl)-L-proline trifluoroacetic acid salt]		440	740	≥ 30000
O=C(O)[C@@H]1CCCN1C(=O)c1cc(C2CC2)c(OCC2(F)CN(Cc3ccc(Cl)cc3C(F)(F)F)C2)cc1F [Example 99, 1-(4-((1-(4-chloro-2-(trifluoromethyl)benzyl)-3-fluoroazetidin-3-yl)methoxy)-5-cyclopropyl-2-fluorobenzoyl)pyrrolidine-2-carboxylic acid trifluoroacetic acid salt]		230	550	≥ 30000
O=C(O)[C@@H]1C[C@@H](F)CN1C(=O)c1cc(C2CC2)c(OCC2CCN(Cc3cc(C(F)(F)F)cc(Cl)c3F)CC2)cc1F [Example 101, (2S,4R)-1-(4-((1-(3-chloro-2-fluoro-5-(trifluoromethyl)benzyl)-piperidin-4-yl)methoxy)-5-cyclopropyl-2-fluorobenzoyl)-4-fluoropyrrolidine-2-carboxylic acid]		66	520	≥ 30000
O=C(O)[C@@H]1C[C@@H](F)CN1C(=O)c1cc(C2CC2)c(OCC2(F)CCN(Cc3cc(C(F)(F)F)cc(Cl)c3F)CC2)cc1F [Example 102, (2S,4R)-1-(4-((1-(3-chloro-2-fluoro-5-(trifluoromethyl)benzyl)-4-fluoropiperidin-4-yl)methoxy)-5-cyclopropyl-2-fluorobenzoyl)-4-fluoropyrrolidine-2-carboxylic acid]	23000	65	330	
O=C(O)[C@@H]1C[C@@H](F)CN1C(=O)c1cc(C2CC2)c(OCC2CCN(Cc3cc(C(F)(F)F)ccc3F)CC2)cc1F [Example 103, (2S,4R)-1-(5-cyclopropyl-2-fluoro-4-((1-(2-fluoro-5-(trifluoromethyl)benzyl)-piperidin-4-yl)methoxy)benzoyl)-4-fluoropyrrolidine-2-carboxylic acid]		33	340	≥ 30000
O=C(O)[C@@H]1C[C@@H](F)CN1C(=O)c1cc(C2CC2)c(OCC2CCN(Cc3ccc(Cl)c(F)c3)CC2)cc1F [Example 104, (2S,4R)-1-(4-((1-(4-chloro-3-fluorobenzyl)piperidin-4-yl)methoxy)-5-cyclopropyl-2-fluorobenzoyl)-4-fluoropyrrolidine-2-carboxylic acid]		130	1600	≥ 30000
O=C(O)[C@@H]1C[C@@H](F)CN1C(=O)c1cc(C2CC2)c(OCC2CCN(Cc3cc(Cl)cc(OC(F)(F)F)c3)CC2)cc1F [Example 105, (2S,4R)-1-(4-((1-(3-chloro-5-(trifluoromethoxy)benzyl)piperidin-4-yl)methoxy)-5-cyclopropyl-2-fluorobenzoyl)-4-fluoropyrrolidine-2-carboxylic acid]	22000	37	220	
